Experimental data taken from patent US11857560B2, “Pharmaceutical compositions comprising substituted nucleotides and nucleosides for treating viral infections” (priority 2013, dated 2024).
Read-outs that look alike come from different tables or passages of the source.

How the values were obtained:
[1] = system: Influenza A H1N1; test: Antiviral activity, Influenza A H1N1; type: cell-based
[2] = system: Measles; test: Antiviral activity, Measles; type: cell-based, measles virus; settings: Measles morbillivirus
[3] = system: VEEV; test: microbe, parasite or virus in culture; type: cell-based; settings: Venezuelan equine encephalitis virus, read-out: VEEV EC50
[4] = system: SARS; test: microbe, parasite or virus in culture; settings: Severe acute respiratory syndrome coronavirus, read-out: SARS EC50
[5] = system: RVFV; test: microbe, parasite or virus in culture; type: cell-based; settings: Rift Valley fever virus, read-out: RVFV EC50
[6] = system: West Nile Virus; test: Antiviral activity, West Nile Virus; type: cell-based; settings: read-out: West Nile Virus EC50
[7] = system: Tacaribe Virus; test: microbe, parasite or virus in culture; type: cell-based; settings: Mammarenavirus tacaribeense, read-out: Tacaribe Virus EC50
[8] = system: Influenza B; test: Antiviral activity, Influenza B; type: cell-based
[9] = system: Dengue Virus; test: Antiviral activity, Dengue Virus; type: cell-based
[10] = system: CHIK Virus; test: Antiviral activity, CHIK Virus; type: cell-based; settings: Chikungunya virus, read-out: CHIK Virus EC50
[11] = system: RSV; test: Antiviral activity, RSV; type: cell-based; settings: human respiratory syncytial virus
[12] = system: Influenza A H3N2; test: Antiviral activity, Influenza A H3N2; type: cell-based
[13] = system: Influenza A H5N1 (low path); test: microbe, parasite or virus in culture; type: cell-based; settings: H5N1, read-out: Influenza A H5N1 (low path) EC50
[14] = in vitro
[15] = Cytotoxicity panel, BxPC3; settings: human, BxPC3 cells
[16] = Cytotoxicity panel, Huh-7; settings: human, Huh-7 cells, Cytotoxicity (CC50 uM) Huh-7, Huh-7
[17] = Cytotoxicity panel, HepG2; settings: human, HepG2 cells
[18] = Toxicity in Vero cells (Dengue assay); settings: African green monkey
[19] = Toxicity in Huh-7 cells (Dengue assay); settings: human, Huh-7 cells
[20] = Cellular toxicity in parallel with HCV replicon assay (XTT); settings: human
[21] = Cytotoxicity panel, H9c; type: cell-based; settings: rat, H9c cells
[22] = system: Huh-7; test: Cytotoxicity panel, Huh-7; settings: read-out: Cytotoxicity (CC50 uM) Huh-7; Huh-7
[23] = Cytotoxicity in GT1b replicon cells; type: cell-based
[24] = Cytotoxicity panel, IEC-6; type: cell-based; settings: rat, IEC-6 cells
[25] = Cytotoxicity panel, CEM; settings: human, CEM cells, Cytotoxicity (CC50 uM) CEM
[26] = Cytotoxicity panel, A204; type: cell-based; settings: human, A204 cells
[27] = Influenza A virus, H1N1; read-out: Influenza A H1N1 EC50
[28] = Influenza B virus; read-out: Influenza B EC50
[29] = Influenza A virus, H3N2; read-out: Influenza A H3N2 EC50

| SMILES | EC50 [1, 27] | EC50 [2] | EC50 [3] | EC50 [4] | EC50 [5] | EC50 [6] | EC50 [7] | EC50 [8, 28] | EC50 [9] | EC50 [10] | EC50 [11] | EC50 [12, 29] | EC50 [13] | CC50 [17] | other results |
| --- | --- | --- | --- | --- | --- | --- | --- | --- | --- | --- | --- | --- | --- | --- | --- |
| CNc1ccn([C@@H]2O[C@H](CO)C(O)[C@@H]2F)c(=O)n1 (stereo partly drawn) [EFVX-01853] | > 100 µM | > 100 µM | > 100 µg/mL | > 100 µM | > 100 µg/mL | > 100 µg/mL | > 100 µg/mL | > 100 µM | > 100 µg/mL | > 100 µg/mL | > 100 µM | > 100 µM | > 100 µM | – | – |
| CN(C)c1ccn([C@@H]2O[C@H](CO)C(O)[C@@H]2F)c(=O)n1 (stereo partly drawn) [EFVX-01854] | > 100 µM | > 100 µM | > 100 µg/mL | > 100 µM | > 100 µg/mL | > 100 µg/mL | > 100 µg/mL | > 100 µM | > 100 µg/mL | > 100 µg/mL | > 100 µM | > 100 µM | > 100 µM | – | – |
| Cc1cn([C@@H]2O[C@H](CO)C(O)[C@@H]2F)c(=O)nc1N (stereo partly drawn) [EFVX-01855] | > 100 µM | > 100 µM | > 100 µg/mL | > 100 µM | > 100 µg/mL | > 100 µg/mL | > 100 µg/mL | > 100 µM | > 100 µg/mL | > 100 µg/mL | > 100 µM | > 100 µM | > 100 µM | – | – |
| Nc1nc(=O)n([C@@H]2O[C@H](CO)C(O)[C@@H]2F)cc1CO (stereo partly drawn) [EFVX-01856] | > 100 µM | > 100 µM | > 100 µg/mL | > 100 µM | > 100 µg/mL | > 100 µg/mL | > 100 µg/mL | > 100 µM | > 100 µg/mL | > 100 µg/mL | > 100 µM | > 100 µM | > 100 µM | – | – |
| Nc1ccn([C@@H]2O[C@H](CO)C(O)[C@@H]2F)c(=S)n1 (stereo partly drawn) [EFVX-01857] | – | > 100 µM | > 100 µg/mL | > 87 µM | > 100 µg/mL | > 100 µg/mL | > 100 µg/mL | > 100 µM | > 100 µg/mL | > 100 µg/mL | > 100 µM | – | > 100 µM | – | EC50 ([1]; Influenza A virus, H1N1, read-out: Influenza A H1N1 EC50): > 100 µM; CC50 [14]: 87 µM; EC50 ([12]; Influenza A virus, H3N2, read-out: Influenza A H3N2 EC50): > 100 µM |
| CC(C)OP1(=O)OC[C@H]2O[C@@H](n3ccc(=O)[nH]c3=O)C(F)[C@H]2O1 (stereo partly drawn) [EFVX- 01841] | > 100 µM | – | – | 70 µM | – | – | – | – | – | – | > 100 µM | > 100 µM | > 100 µM | – | CC50 [14]: > 89 µM; EC50 ([8]; Influenza B virus, read-out: Influenza B EC50): > 100 µM |
| C[C@@]1(O)C(O)[C@@H](CO)O[C@H]1n1ccc(=O)[nH]c1=S (stereo partly drawn) [ENUC-01850-1] | – | – | – | – | – | – | – | – | – | – | – | – | – | > 400 µM | CC50 [15]: > 100 µM; CC50 [16]: > 100 µM |
| C[C@@]1(O)C(O)[C@@H](CO)O[C@H]1n1ccc(=O)[nH]c1=S (stereo partly drawn) [ENUC-01850] | – | – | – | – | – | – | – | – | – | – | – | – | – | – | CC50 [18]: > 100 µM; CC50 [19]: > 100 µM |
| O=c1[nH]c(=S)ccn1[C@@H]1O[C@H](CO)C(O)[C@@H]1O (stereo partly drawn) [ENUC-01893-1] | – | – | – | – | – | – | – | – | – | – | – | – | – | – | CC50 at 72 h [20]: 45.7 µM |
| CC(C)OC(=O)[C@H](C)NP(=O)(OC[C@H]1O[C@@H](n2ccc(=O)[nH]c2=S)[C@](C)(O)C1O)Oc1ccccc1 (stereo partly drawn) [ENUC-01911-1] | – | – | – | – | – | – | – | – | – | – | – | – | – | > 400 µM | CC50 [15]: > 300 µM; CC50 [16]: > 400 µM; CC50 [21]: > 200 µM |
| CC(C)OC(=O)[C@H](C)NP(=O)(OC[C@H]1O[C@@H](n2ccc(=O)[nH]c2=S)[C@](C)(O)C1O)Oc1ccccc1 (stereo partly drawn) [ENUC-01911-2] | – | – | – | – | – | – | – | – | – | – | – | – | – | – | CC50 [22]: > 400 µM; CC50 [23]: > 10 µM |
| C[C@@]1(O)C(O)[C@@H](CO)O[C@H]1n1ccc(=S)[nH]c1=O (stereo partly drawn) [ENUC-01916-1] | – | – | – | – | – | – | – | – | – | – | – | – | – | > 400 µM | – |
| CC(C)OC(=O)[C@H](C)NP(=O)(OC[C@H]1O[C@@H](n2ccc(=S)[nH]c2=O)[C@](C)(O)C1O)Oc1ccccc1 (stereo partly drawn) [ENUC-01920-1] | – | – | – | – | – | – | – | – | – | – | – | – | – | > 400 µM | CC50 [16]: > 400 µM |
| CC(C)OC(=O)[C@H](C)NP(=O)(OC[C@H]1O[C@@H](n2ccc(=S)[nH]c2=O)[C@](C)(F)C1O)Oc1ccccc1 (stereo partly drawn) [ENUC-01943-1] | – | – | – | – | – | – | – | – | – | – | – | – | – | 199 µM | CC50 [24]: > 400 µM; CC50 [15]: > 300 µM; CC50 [25]: 136 µM; CC50 [26]: > 200 µM |
| C[C@@]1(F)C(O)[C@@H](CO)O[C@H]1n1ccc(=S)[nH]c1=O (stereo partly drawn) [ENUC-01946-1] | – | – | – | – | – | – | – | – | – | – | – | – | – | > 400 µM | CC50 [16]: > 400 µM; CC50 [25]: > 400 µM |
